From ChEMBL document CHEMBL1268973, “Flavonoids from Dracocephalum tanguticum and their cardioprotective effects against doxorubicin-induced toxicity in H9c2 cells” (Bioorg Med Chem Lett, 2010)
Activity calls are given as the source filed them. The rule behind the calls is not given here.

What was measured:
[1] = tested on: Radical scavenging activity; assay: Antioxidant activity of the compound assessed as DPPH radical scavenging activity after 30 mins; format: functional
[2] = Antioxidant activity assessed as ABTS radical scavenging activity; format: functional
H9c2 [3] = assay: Cytoprotective activity against doxorubicin-induced cytotoxicity in rat H9c2 cells assessed as cell viability after 24 hrs by MTT assay; format: functional, cell-based
[4] = Antioxidant activity assessed as ferrous ion chelating activity; format: functional
H9c2 [5] = assay: Cytoprotective activity against in rat H9c2 cells assessed as inhibition of doxorubicin-induced cell death after 24 hrs by MTT assay; format: functional, cell-based
H9c2 [6] = assay: Cytoprotective activity against rat H9c2 cells assessed as reduction in doxorubicin-induced CK release at 5 to 20 uM after 24 hrs; format: functional, cell-based
H9c2 [7] = assay: Cytoprotective activity against rat H9c2 cells assessed as reduction in doxorubicin-induced LDH release at 5 to 20 uM after 24 hrs; format: functional, cell-based
H9c2 [8] = assay: Cytoprotective activity against rat H9c2 cells assessed as inhibition of doxorubicin-induced morphological changes at 10 to 40 uM after 24 hrs; format: functional, cell-based
H9c2 [9] = assay: Cytoprotective activity against rat H9c2 cells assessed as inhibition of doxorubicin-induced intracellular ROS elevation at 5 to 20 uM after 24 hrs; format: functional, cell-based
H9c2 [10] = assay: Cytoprotective activity against rat H9c2 cells assessed as inhibition of doxorubicin-induced intracellular Ca2+ elevation; format: functional, cell-based
H9c2 [11] = assay: Effect on doxorubicin-induced total apoptosis in rat H9c2 cells at 20 uM; format: functional, cell-based
[12] = Rattus norvegicus, H9c2, 24 h, read-out: EC50

SMILES | EC50 [1] | EC50 [2] | EC50 [4] | EC50 (H9c2 [3]; h9c2) | EC50 (H9c2 [3]; [12]) | also measured
COc1cc2oc(-c3ccc(O)cc3)cc(=O)c2c(O)c1O | 20 µM | 13.4 µM | – | Not Active | – | –
O=c1cc(-c2ccc(O)c(O)c2)oc2cc(O[C@@H]3O[C@H](CO)[C@@H](O)[C@H](O)[C@H]3O)cc(O)c12 [GALUTEOLIN] | 3.94 µM | 56.5 µM | 1100 µM | – | 5.04 µM | Activity (H9c2 [5]): inactive; Activity (H9c2 [6]): Active; Activity (H9c2 [7]): Active; Activity (H9c2 [8]): Active; Activity (H9c2 [9]): Active; Activity (H9c2 [10]): Dose-dependent effect; Activity (H9c2 [11]): inactive
O=c1cc(-c2ccc(O)c(O)c2)oc2cc(O)cc(O)c12 [LUTEOLIN] | 6.12 µM | 105 µM | 12000 µM | – | 5.53 µM | –
COc1cc2oc(-c3ccc(O)cc3)cc(=O)c2c(O)c1O[C@@H]1O[C@H](COC(C)=O)[C@@H](O)[C@H](O)[C@H]1O | 113 µM | 12.3 µM | 4510 µM | Not Active | – | –
O=c1cc(-c2ccc(O)cc2)oc2cc(O[C@@H]3O[C@H](CO)[C@@H](O)[C@H](O)[C@H]3O)cc(O)c12 [APIGETRIN] | 20.4 µM | 13.1 µM | – | – | 12.3 µM | –
O=C1C[C@@H](c2ccc(O)cc2)Oc2cc(O[C@@H]3O[C@H](CO)[C@@H](O)[C@H](O)[C@H]3O)cc(O)c21 [PRUNIN] | 40.6 µM | 18.1 µM | – | Not Active | – | –
COc1cc2oc(-c3ccc(O)c(O[C@@H]4O[C@H](CO)[C@@H](O)[C@H](O)[C@H]4O)c3)cc(=O)c2c(O)c1O | 31 µM | 15.7 µM | 60 µM | – | 13.1 µM | –
O=C1C[C@@H](c2ccc(O)cc2)Oc2cc(O)cc(O)c21 [NARINGENIN] | 72.3 µM | 13.5 µM | 21400 µM | Not Active | – | –
COc1ccc(-c2cc(=O)c3c(O)cc(O[C@@H]4O[C@H](CO)[C@@H](O)[C@H](O)[C@H]4O)cc3o2)cc1 [TILIANINE] | 95 µM | 400 µM | – | Not Active | – | –

The remaining compounds from weak to strong by EC50 [1], led by results:

EC50 [1] | EC50 [2] | EC50 [4] | SMILES | EC50 (H9c2 [3]; h9c2) | EC50 (H9c2 [3]; [12]) | also measured
159 µM | 581 µM | – | COc1cc2oc(-c3ccc(O)cc3)cc(=O)c2c(O)c1O[C@@H]1O[C@H](CO)[C@@H](O)[C@H](O)[C@H]1O | Not Active | – | –
98.8 µM | 1.15 µM | 8370 µM | O=C1C[C@@H](c2ccc(O)c(O)c2)Oc2cc(O)cc(O)c21 [ERIODICTYOL] | – | 25.5 µM | –
95.2 µM | 76.2 µM | 1130 µM | COc1cc2oc(-c3ccc(O)c(O)c3)cc(=O)c2c(O)c1O[C@@H]1O[C@H](COC(C)=O)[C@@H](O)[C@H](O)[C@H]1O | – | 19.1 µM | –
81.2 µM | 86.1 µM | 27600 µM | COc1cc2oc(-c3ccc(O)c(O)c3)cc(=O)c2c(O)c1O[C@@H]1O[C@H](CO)[C@@H](O)[C@H](O)[C@H]1O | Not Active | – | –
32.1 µM | 16.3 µM | 161000 µM | O=C1C[C@@H](c2cc(O)cc(O)c2)Oc2cc(O)cc(O)c21 | Not Active | – | –
15.6 µM | 7.26 µM | 213000 µM | O=C1C[C@@H](c2ccc(O)c(O)c2)Oc2cc(O[C@@H]3O[C@H](CO)[C@@H](O)[C@H](O)[C@H]3O)cc(O)c21 | – | 38.2 µM | –
13.2 µM | 87.8 µM | 3310 µM | CCOC(=O)[C@H]1O[C@@H](Oc2cc(O)c3c(=O)cc(-c4ccc(O)c(O)c4)oc3c2)[C@H](O)[C@@H](O)[C@@H]1O | – | 6.34 µM | –
